For assay [1], the system named is U-46619 induced platelet aggregation. Briefly: Ex vivo inhibition of U-46619 induced platelet aggregation, intragastric (rat). The format is in vivo. The settings on record: for ED50: read-out: I.G. ED50, ex vivo inhibition of U-46619 induced aggregation; for I.V./I.G. ratio: from the I.V. and the I.G. studies, rat ED50. As to the method:
(§1) II. Ex vivo--(rat) Inhibition of U-46619 induced platelet aggregation
Compounds dissolved in Na Carbonate were administered to conscious rats with an I.G. tube. Fifteen minutes post administration (time previously determined to show maximum effect), rats were anesthetized with ether and blood was sampled from the abdominal aorta. PRP was prepared as described in II a.

In assay [2] the test system is U-46619-induced platelet aggregation. Briefly: Inhibition of U-46619-induced platelet aggregation (rat), in vitro in rat platelet rich plasma. It is filed as cell-based. The conditions noted are these: for IC50: 1 min preincubation at 37° C. As to the method: a. Inhibition of U-46619-induced platelet aggregation (rat)
Platelet rich plasma (PRP) was prepared from heparanized whole blood (5 units/ml) drawn from the abdominal aorta of ether anesthetized rats. PRP was prepared by centrifugation (Sorvall RC2B, DuPont, Wilmington, Del.) of the whole blood at 150×g for 10 min. Platelet poor plasma (PPP) was prepared by centrifugation at 1200×g for 20 min. Aliquots of PRP and PPP were used to standardize the aggregometer (Payton, Buffalo, N.Y., model 300B) with the recorder (Riken Denshi 2 channel recorder, Payton, model SP H5P) for measurement of […] light transmittance, respectively.
Platelet aggregation was measured as an increase in light transmittance. PRP (390 μl aliquot+5 μl compound vehicle) was preincubated for 1 min. at 37° C., with stirring at 900 rpm in the aggregometer. The vehicle control response was obtained by adding U-46619 (Cayman Chemical, Ann Arbor, Mich., 1-2 units/cuvette/10 μl ) to the aliquot of PRP. Aggregation was monitored until maximum aggregation was achieved (approximately 3 min. following the addition of U-46619). Amount of aggregation was measured by grids on the strip chart.
Compounds were dissolved in either ethanol (ETOH) or Na2 CO3 (0.1M) and preincubated at the desired concentration in PRP for 1 min. at 37° C. with stirring. At the end of the preincubation, U-46619 was added and aggregation measured. Inhibition of aggregation by compound was calculated as percent inhibition of the control aggregation response to U-46619. Dose response curves were generated and IC50 's calculated by linear regression.

For assay [3], the system named is U-46619 induced platelet aggregation. Put plainly: Ex vivo inhibition of U-46619 induced platelet aggregation, intravenous (rat). The conditions noted are these: for ED50: Platelet, iv, 0.5 min, i.v. bolus, blood sampled 30 sec. later. It is filed as in vivo. As for the experimental part: as §1
Rats were anesthetized with ether and the jugular vein exposed. Compound dissolved in 0.1M Na Carbonate was injected as a bolus into the jugular vein. Blood (5 ml, heparanized) was sampled 30 sec. later from the abdominal aorta. PRP was prepared by quick centrifugation (Eppendorf, model 5415 at 12,000 rpm for 5 sec.) PPP was prepared by centrifugation for 2 min. PRP was diluted 1:1 with PPP from, similarly treated animals. Aggregation was monitored for 5 min. and inhibition was determined as previously described.

Assay [4] deals with collagen induced platelet aggregation. Briefly: Inhibition of collagen induced platelet aggregation in dog PRP. The format is cell-based. The settings on record: Canis lupus familiaris. As to the method:
c. Inhibition of collagen induced platelet aggregation in dogs by SC-44161 and SC-46984
Blood was collected into citrated vacutainers from the jugular veins of conscious dogs and centrifuged at 200×g for 7 min. PRP was separated and an aliquot (450 μl ) incubated 1 min. in the aggregometer (as described above). Collagen (50 μl, Helena Reagent, bovine tendon) was added and aggregation monitored for 5 min. Percent inhibition and IC50 's were determined as previously described.

Assay [5] has as its system human washed platelets stimulated with U-46619. Briefly: Inhibition of U-46619 stimulated aggregation of human washed platelets by SC-46985. The format is cell-based. The conditions noted are these: Platelet. As to the method: (§2) Sixty ml of blood were drawn into 1/10 volume of CCD (100 mM Na Citrate and 136 mM glucose, pH 6.5 with HCl) and PRP prepared as described above. PRP was placed on ice for 15 min. One half of the volume of CCD was added and recentrifuged. The platelet pellet was gently resuspended in 1/2 the original volume of PRP in a 0° C. modified Tangen-Hepes-BSA buffer (145 mM NaCl, 5 mM KCl, 0.05 mM CaCl2, 0.1 mM MgCl2, 11 mM glucose, 15 mM Hepes, 1 mg/ml bovine serum albumin, pH adjusted to 7.4 with NaOH). The resuspended platelets were incubated undisturbed at 37° C. for 30 min. After incubation a platelet count was determined and adjusted to 3×10^8 cells/ml with the Tangen-Hepes-BSA buffer.
(§3) 425 μl of the washed human platelet suspension was incubated in the aggregometer in the presence of 16 mM CaCl2 (50 μl ) and SC-46985 for 5 and 10 min. […] (In a study similar to (a) above, aliquots of human washed platelets were incubated with various concentrations of SC-46985 and U-46619 to determine dose-related inhibition of aggregation).

In another assay the test system is human washed platelets. Put plainly: Analysis of partial agonism with SC-46985 (human washed platelets). It is filed as cell-based. As for the experimental part:
b. Analysis of partial agonism with SC-46985 (human washed platelets)
as §2, §3

The mark [6] stands for this setting: Rattus norvegicus, Platelet, vehicle Na2CO3 (0.1M), (a) values are estimates based on all-or-none responses.
The mark [7] stands for this setting: Platelet, po, 0.25 h, rat, intragastric, 15 min post administration.
The mark [8] stands for this setting: Rattus norvegicus, Platelet, vehicle ETOH.

The molecule `CC(=NNC(=S)Nc1ccccc1)[C@@H]1[C@H]2CC[C@H](C2)[C@H]1C/C=C/CCCC(=O)O` [SC-47721, 7-[3α-[1-[[(Phenylamino)thioxomethyl]hydrazono]ethyl]-1R, 1α,4α-bicyclo[2.2.1]hept-2β-yl]-5E-heptenoic acid] had an inhibition at 1 mg/kg in assay [1] (Platelet, po, 0.25 h, rat, intragastric, 1 mg/kg, 15 min post administration) of 37.5%. In addition, the IC50 in assay [2] (setting [6]) is roughly 7.5 nM. Further, in assay [2] (rat PRP, U-46619), the “potency compared with SC-46984 (in vitro)” value is on record as “less potent than SC 46984” and the “times more potent than SC-44161 (in vitro)” value is on record as 10-50 times.
In the case of `CC(=NNC(=S)Nc1ccccc1)[C@@H]1[C@H]2CC[C@H](C2)[C@H]1C/C=C\CCCC(=O)O` [SC-46984, 7-[3α-[1-[[(Phenylamino)thioxomethyl]hydrazono]ethyl]-1R, 1α,4α-bicyclo[2.2.1]hept-2β-yl]5Z-heptenoic acid], the figures for the ED50 in assay [1] (setting [7]) and in assay [3] were 0.44 mg/kg and 0.0087 mg/kg, respectively. Besides, the I.V./I.G. ratio in assay [1] was 51. For the same molecule, in assay [1] (rat, intragastric, ex vivo), the “times more potent than SC-44161 (I.G.)” value is “approximately 2.8 times”. Further, in assay [3] (i.v., ex vivo), the “times more potent than SC-44161 (I.V.)” value is reported as “approximately 3.5 times”. In addition, the IC50 was 50 nM in assay [2] (setting [8]), 0.7 nM in assay [2] (setting [6]) and 2090 nM in assay [4]. Moreover, in assay [2] (rat PRP, Na carbonate vs ETOH), the “more potent in aqueous solution than in ethanol” value is recorded as 10-50 times. In assay [2] (rat PRP, U-46619), the “times more potent than SC-44161 (in vitro)” value is “approximately 100 times”.
On to `CC(=NNC(=S)Nc1ccccc1)[C@H]1[C@@H]2CC[C@@H](C2)[C@@H]1C/C=C\CCCC(=O)O` [SC-46985], for which the IC50 is 5600 nM in assay [5], 970 nM in assay [2] (setting [8]) and roughly 2500 nM in assay [2] (setting [6]). In addition, it took a dose of 0.045 mg/kg to reach the 50% effect level in assay [3] (ED50). Moreover, in assay [3] (i.v., ex vivo), the “times less potent than SC-44161 (I.V.)” value is recorded as “approximately 1.5 times”. Also, the partial agonist activity result in the assay with human washed platelets (5 and 10 min. incubation) is given as “lack of partial agonist activity”. Besides, the “evidence of shape change or aggregation (partial agonism)” value with human washed platelets (after 5 and 10 min. incubation) is given as “no evidence of shape change or aggregation”.
`CC(=NNC(=S)Nc1ccccc1)C1C2CCC(C2)C1CC=CCCCC(=O)O` (stereo not shown) [SC-46986]: the half-inhibitory concentration (IC50) in assay [2] (vehicle ETOH) was 690 nM.
As for `CC(=NNC(=S)Nc1ccccc1)C1C2CCC(C2)C1CC=CCCCC(=O)O` (racemic) [SC-44161, (±)7-[3α[[(Phenylamino)thioxomethyl]hydrazono]ethyl]1α,4α-bicyclo[2.2.1]hept-2β-yl]-5Z-heptenoic acid], the results for the ED50 in assay [1] (setting [7]) and in assay [3] were 1.21 mg/kg and 0.031 mg/kg, respectively. Besides, the I.V./I.G. ratio in assay [1] came out at 39. Also, the IC50 was 70 nM in assay [2] (setting [6]) and 11400 nM in assay [4]. Further, the “more potent when in aqueous solution than when dissolved in ethanol” value in assay [2] (rat PRP, Na carbonate vs ETOH) is given as 5-10 fold.

The term inhibition denotes the change of the read-out against control, counted positive when it falls. Low readings indicate a weak effect, high ones a strong effect. What is called IC50 is the point on the concentration scale where inhibition reaches its midpoint. The term ED50 denotes the dose that gives a 50% effect, or the effect in half of the subjects.
